Test results as given in patent US8883410B2, “Method for determining the stability of organic methyleneamines in the presence of semicarbazide-sensitive amine oxidase” (Sanofi, priority 2007, dated 2014).

Target: T1, human SSAO, full-length, C-terminal 6xHIS tag (Homo sapiens, UniProt Q16853)
T1 construct: expressed in transfected cells; cell lysate
T1 sequence (Q16853 1-763): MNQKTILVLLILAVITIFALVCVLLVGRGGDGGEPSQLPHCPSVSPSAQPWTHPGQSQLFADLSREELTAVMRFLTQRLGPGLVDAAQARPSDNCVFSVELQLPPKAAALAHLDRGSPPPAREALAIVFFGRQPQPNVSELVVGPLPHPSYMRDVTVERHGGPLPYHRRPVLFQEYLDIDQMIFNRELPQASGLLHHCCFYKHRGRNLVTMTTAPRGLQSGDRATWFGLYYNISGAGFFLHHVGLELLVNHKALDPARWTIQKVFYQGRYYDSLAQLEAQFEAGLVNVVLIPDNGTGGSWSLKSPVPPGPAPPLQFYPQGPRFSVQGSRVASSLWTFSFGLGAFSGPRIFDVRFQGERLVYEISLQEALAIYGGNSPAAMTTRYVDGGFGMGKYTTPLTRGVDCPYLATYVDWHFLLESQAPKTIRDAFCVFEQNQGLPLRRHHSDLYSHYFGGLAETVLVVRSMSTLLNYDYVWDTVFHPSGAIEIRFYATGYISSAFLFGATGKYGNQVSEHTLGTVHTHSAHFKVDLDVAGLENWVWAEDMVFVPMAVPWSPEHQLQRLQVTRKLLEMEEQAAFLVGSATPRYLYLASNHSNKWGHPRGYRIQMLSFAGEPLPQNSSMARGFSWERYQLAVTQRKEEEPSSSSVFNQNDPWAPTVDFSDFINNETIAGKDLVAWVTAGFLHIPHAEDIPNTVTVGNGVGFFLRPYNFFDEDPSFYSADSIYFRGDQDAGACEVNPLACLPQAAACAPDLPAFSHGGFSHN
Experiment: Benzylamine stability in lysate of cells expressing full-length SSAO with C-terminal 6xHIS tag, LC/MS/MS
Assay type: in vitro ADME
Method: The expression constructs were prepared by cloning these PCR products into the pCDNA5-FRT-To-DEST vector (Invitrogen, Gateway System™). The forward and reverse DNA sequence of each construct was confirmed including expressed sequences and at least 100 base pairs either side of this. Stable cell lines for Flp-In CHO, Flp-In CHO T-Rex, and Flp-In HEK 293 (Invitrogen, Flp-In system™) were generated using these 6 constructs according to manufacturer's instructions. Cells were co-transfected with the regulatory vector, pOG44, and each of the pCDNA5-FRT-To-DEST constructs using Lipfectamine (Invitrogen) according to manufacturer's instructions. Thus, 18 cell lines were generated: CHO Flp-In full-length SSAO; CHO Flp-In full-length SSAO with C-terminal 6×HIS tag; CHO Flp-In T1 SSAO; CHO Flp-In T1 SSAO with C-terminal 6×HIS tag; CHO Flp-In T2 SSAO; CHO Flp-In T2 SSAO with C-terminal 6×HIS tag; CHO T-Rex Flp-In full-length SSAO; CHO T-Rex Flp-In full-length SSAO with C-terminal 6×HIS tag; CHO T-Rex Flp-In T1 SSAO; CHO T-Rex Flp-In T1 SSAO with C-terminal 6×HIS tag; CHO T-Rex Flp-In T2 SSAO; CHO Flp-In T2 SSAO with C-terminal 6×HIS tag; HEK 293 Flp-In full-length SSAO; HEK 293 Flp-In full-length SSAO with C-terminal 6×HIS tag; HEK 293 Flp-In T1 SSAO; HEK 293 Flp-In T1 SSAO with C-terminal 6×HIS tag; HEK 293 Flp-In T2 SSAO; HEK 293 Flp-In T2 SSAO with C-terminal 6×HIS tag.
Adherent CHO cells were cultured at 37° C., 5% CO2 in media containing Ham's F12, 10% fetal bovine serum, 2 mM L-glutamine, 1% Penicillin/Streptomycin, 300 μM hygromycin B. Adherent HEK 293 cells were cultured at 37° C., 5% CO2 in D-MEM (high glucose), 10% fetal bovine serum, 2 mM L-glutamine, and 200 μM hygromycin B. Stable transformants were identified by loss of zeocin resistance. Once the cells were 80% confluent, SSAO expression was induced by the addition of Tetracycline to 1 μg/mL. Following 18 hours, the cells were harvested using a trypsin treatment of 3 minutes, at room temperature. Cells were washed 3 times in phosphate buffered saline before flash freezing in liquid nitrogen.
For the preparation of cell lysate for activity testing, frozen cell pellets were resuspended in lysate buffer containing 10 mM Tris-HCl (pH 7.2), 150 mM NaCl, 1.5 mM MgCl2, 1% v/v NP-40 and incubated for 15 minutes on ice. Lysate was cleared by centrifugation 800×g for 10 minutes, 4° C. and stored in aliquots at −80° C. until use. Proteins were determined using Pierce Coomassie Protein Reagent, according to manufacturer's instructions.
For each assay run, 1 mL of cell lysate (1.5 mg/mL protein) was mixed with benzylamine to 2000 ng/mL final concentration. At each corresponding time point, […] the incubation mixture was transferred to a microcentrifuge tube (1.7 mL) and mixed with 50 μL of acetonitrile. The tubes were vortex mixed briefly to ensure complete mixing and then centrifuged at 10,000×g for 5 minutes. The supernatant was removed and 50 μL was transferred to an autosampler vial and mixed with 50 μL of water before LC/MS/MS analysis. Benzylamine remaining in the lysate was analyzed with LC/MS/MS method.
LC/MS/MS analysis was performed with a PE Sciex API 3000 mass spectrometer under the following conditions listed below and in Tables 1 and 2: […]

Benzylamine Remaining (%) (CHO Flp-In T-Rex lysate, 0 min): 100%
Benzylamine Remaining (%) (CHO Flp-In T-Rex lysate, 10 min): 94%
Benzylamine Remaining (%) (CHO Flp-In T-Rex lysate, 2 h): 59%
Benzylamine Remaining (%) (CHO Flp-In lysate, 0 min): 100%
Benzylamine Remaining (%) (CHO Flp-In lysate, 10 min): 101%
Benzylamine Remaining (%) (CHO Flp-In lysate, 2 h): 73%
Benzylamine Remaining (%) (HEK293 lysate, 0 min): 100%
Benzylamine Remaining (%) (HEK293 lysate, 10 min): 105%
Benzylamine Remaining (%) (HEK293 lysate, 2 h): 98%
SMILES: NCc1ccccc1 [Benzylamine]
